Results published in ChEMBL document CHEMBL1201862, “PubChem BioAssay data set” (2004).
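Results reflect a 48-hour exposure of cells in 96-well plates to compound at five concentrations. The concentration for 50% growth inhibition is given as GI50.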 Activity calls are given as the source filed them. Cut-off read from the data, not from the text of the source: active = GI50 up to about 1.1 µM and inactive = higher.

How the values were obtained:
Experiment in all cases: inhibition of tumour cell growth, NCI panel, 48 h
ACHN = test system: ACHN
SF-295 = test system: SF-295
UACC-62 = test system: UACC-62
MCF7 = test system: MCF7
MDA-MB-231 = test system: MDA-MB-231
A549 = test system: A549
RXF 393 = test system: RXF 393
SN12C = test system: SN12C
CAKI-1 = test system: CAKI-1
EKVX = test system: EKVX
HOP-62 = test system: HOP-62
U-251 = test system: U-251
HT-29 = test system: HT-29
SF-268 = test system: SF-268
KM12 = test system: KM12
OVCAR-3 = test system: OVCAR-3
T47D = test system: T47D
COLO 205 = test system: COLO 205
K562 = test system: K562
MDA-MB-435 = test system: MDA-MB-435
SK-MEL-28 = test system: SK-MEL-28
TK-10 = test system: TK-10
NCI/ADR-RES = test system: NCI/ADR-RES
NCI-H522 = test system: NCI-H522
SK-MEL-5 = test system: SK-MEL-5
SW-620 = test system: SW-620
OVCAR-5 = test system: OVCAR-5
HCT-15 = test system: HCT-15
A498 = test system: A498
BT-549 = test system: BT-549
DU-145 = test system: DU-145
NCI-H23 = test system: NCI-H23
SNB-75 = test system: SNB-75
IGROV-1 = test system: IGROV-1
UACC-257 = test system: UACC-257
HL-60 = test system: HL-60
MOLT-4 = test system: MOLT-4
SK-OV-3 = test system: SK-OV-3
OVCAR-8 = test system: OVCAR-8
NCI-H226 = test system: NCI-H226
M14 = test system: M14
RPMI-8226 = test system: RPMI-8226
CCRF-CEM = test system: CCRF-CEM
HCT-116 = test system: HCT-116
PC-3 = test system: PC-3
SR = test system: SR
HOP-92 = test system: HOP-92
OVCAR-4 = test system: OVCAR-4
LOX IMVI = test system: LOX IMVI
786-0 = test system: 786-0
Hs-578T = test system: Hs-578T
UO-31 = test system: UO-31
SNB-19 = test system: SNB-19
NCI-H460 = test system: NCI-H460
Malme-3M = test system: Malme-3M
SF-539 = test system: SF-539
SK-MEL-2 = test system: SK-MEL-2
HCC 2998 = test system: HCC 2998

## O=C1C=CC(O)C2C1CC13SSC4(CC5C(=O)C=CC(O)C5N4C1=O)C(=O)N23 (stereo not given)
ACHN
  GI50: 74.5 nM (active)
SF-295
  GI50: 1090 nM (active)
UACC-62
  GI50: 208 nM (active)
MCF7
  GI50: 1210 nM (inactive)
MDA-MB-231
  GI50: 281 nM (active)
A549
  GI50: 2520 nM (inactive)
RXF 393
  GI50: 483 nM (active)
SN12C
  GI50: 60.1 nM (active)
CAKI-1
  GI50: 155 nM (active)
EKVX
  GI50: 726 nM (active)
HOP-62
  GI50: 324 nM (active)
U-251
  GI50: 234 nM (active)
HT-29
  GI50: 42.6 nM (active)
SF-268
  GI50: 847 nM (active)
KM12
  GI50: 88.5 nM (active)
OVCAR-3
  GI50: 84.5 nM (active)
T47D
  GI50: 499 nM (active)
COLO 205
  GI50: 155 nM (active)
K562
  GI50: 35.8 nM (active)
MDA-MB-435
  GI50: 164 nM (active)
SK-MEL-28
  GI50: 302 nM (active)
TK-10
  GI50: 485 nM (active)
NCI/ADR-RES
  GI50: 54.5 nM (active)
NCI-H522
  GI50: 45.3 nM (active)
SK-MEL-5
  GI50: 412 nM (active)
SW-620
  GI50: 32.4 nM (active)
OVCAR-5
  GI50: 63.4 nM (active)
HCT-15
  GI50: 140 nM
A498
  GI50: 3200 nM (inactive)
BT-549
  GI50: 1630 nM (inactive)
DU-145
  GI50: 354 nM (active)
NCI-H23
  GI50: 106 nM (active)
SNB-75
  GI50: 1110 nM (active)
IGROV-1
  GI50: 1370 nM (inactive)
UACC-257
  GI50: 183 nM (active)
HL-60
  GI50: < 46.5 nM (active)
MOLT-4
  GI50: 10.9 nM (active)
SK-OV-3
  GI50: 2200 nM (inactive)
OVCAR-8
  GI50: 69.8 nM (active)
NCI-H226
  GI50: 308 nM (active)
M14
  GI50: 157 nM (active)
RPMI-8226
  GI50: < 10 nM (active)
CCRF-CEM
  GI50: < 10 nM (active)
HCT-116
  GI50: < 15.1 nM (active)
PC-3
  GI50: 138 nM (active)
SR
  GI50: < 10 nM (active)
HOP-92
  GI50: 96.6 nM (active)
OVCAR-4
  GI50: 476 nM (active)
LOX IMVI
  GI50: 57.9 nM (active)
786-0
  GI50: 39.6 nM (active)
Hs-578T
  GI50: 500 nM (active)
UO-31
  GI50: 272 nM (active)
SNB-19
  GI50: 1360 nM (inactive)
NCI-H460
  GI50: 681 nM (active)
Malme-3M
  GI50: 330 nM (active)
SF-539
  GI50: 151 nM (active)
SK-MEL-2
  GI50: 796 nM (active)

## Cc1cccc(NS(=O)(=O)c2ccc(/N=N/c3c(O)c(C(=O)O)cc4ccccc34)cc2)n1
ACHN
  GI50: > 100000 nM (inactive)
SF-295
  GI50: > 100000 nM (inactive)
UACC-62
  GI50: > 100000 nM (inactive)
MCF7
  GI50: > 100000 nM (inactive)
MDA-MB-231
  GI50: > 100000 nM (inactive)
A549
  GI50: > 100000 nM (inactive)
RXF 393
  GI50: > 100000 nM (inactive)
CAKI-1
  GI50: > 100000 nM (inactive)
EKVX
  GI50: > 100000 nM (inactive)
HOP-62
  GI50: > 100000 nM (inactive)
U-251
  GI50: > 100000 nM (inactive)
HT-29
  GI50: > 100000 nM (inactive)
SF-268
  GI50: > 100000 nM (inactive)
KM12
  GI50: > 100000 nM (inactive)
OVCAR-3
  GI50: > 100000 nM (inactive)
COLO 205
  GI50: > 100000 nM (inactive)
K562
  GI50: > 100000 nM (inactive)
MDA-MB-435
  GI50: > 100000 nM (inactive)
HCC 2998
  GI50: > 100000 nM (inactive)
SK-MEL-28
  GI50: > 100000 nM (inactive)
TK-10
  GI50: > 100000 nM (inactive)
NCI/ADR-RES
  GI50: > 100000 nM (inactive)
NCI-H522
  GI50: > 100000 nM (inactive)
SK-MEL-5
  GI50: > 100000 nM (inactive)
SW-620
  GI50: > 100000 nM (inactive)
OVCAR-5
  GI50: > 100000 nM (inactive)
HCT-15
  GI50: > 100000 nM
BT-549
  GI50: > 100000 nM (inactive)
NCI-H23
  GI50: > 100000 nM (inactive)
SNB-75
  GI50: > 100000 nM (inactive)
IGROV-1
  GI50: > 100000 nM (inactive)
UACC-257
  GI50: > 100000 nM (inactive)
HL-60
  GI50: > 100000 nM (inactive)
MOLT-4
  GI50: > 100000 nM (inactive)
SK-OV-3
  GI50: > 100000 nM (inactive)
OVCAR-8
  GI50: > 100000 nM (inactive)
NCI-H226
  GI50: > 100000 nM (inactive)
M14
  GI50: > 100000 nM (inactive)
RPMI-8226
  GI50: > 100000 nM (inactive)
CCRF-CEM
  GI50: > 100000 nM (inactive)
HCT-116
  GI50: > 100000 nM (inactive)
PC-3
  GI50: > 100000 nM (inactive)
SR
  GI50: > 100000 nM (inactive)
HOP-92
  GI50: > 100000 nM (inactive)
OVCAR-4
  GI50: > 100000 nM (inactive)
786-0
  GI50: > 100000 nM (inactive)
Hs-578T
  GI50: > 100000 nM (inactive)
UO-31
  GI50: > 100000 nM (inactive)
SNB-19
  GI50: > 100000 nM (inactive)
NCI-H460
  GI50: > 100000 nM (inactive)
Malme-3M
  GI50: > 100000 nM (inactive)
SF-539
  GI50: > 100000 nM (inactive)
SK-MEL-2
  GI50: > 100000 nM (inactive)
